# Columns and labels:
# Assay in all cases: Test E preemergence herbicide test
# Set-up in all cases: key: 0 = no effect, 100 = complete control
# foxtail, giant = format: in vivo, Setaria faberii
# In short: (§1)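 Response is a 0–100 visual rating against controls (100 = complete control), taken 21 days after preemergence treatment of seeded silt loam soil held in a greenhouse.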
# surinam grass = format: in vivo, Brachiaria decumbens
# In short: as §1
# waterhemp = format: in vivo, Amaranthus rudis
# Description: Seeds of plant species selected from corn (Zea mays), soybean (Glycine max), velvetleaf (Abutilon theophrasti), lambsquarters (Chenopodium album), wild poinsettia (Euphorbia heterophylla), pigweed, palmer (palmer pigweed, Amaranthus palmeri), waterhemp (common waterhemp, Amaranthus rudis), surinam grass (Brachiaria decumbens), crabgrass, large (large crabgrass, Digitaria sanguinalis), crabgrass, Brazil (Brazilian crabgrass, Digitaria horizontalis), panicum, fall (fall panicum, Panicum dichotomiflorum), foxtail, giant (giant foxtail, Setaria faberii), foxtail, green (green foxtail, Setaria viridis), goosegrass (Eleusine indica), johnsongrass (Sorghum halepense), ragweed (common ragweed, Ambrosia elatior), barnyardgrass (Echinochloa crus-galli), sandbur (southern sandbur, Cenchrus echinatus), arrowleaf […] rhombifolia), ryegrass, Italian (Italian ryegrass, Lolium multiflorum), dayflower, VA (Virginia dayflower, Commelina virginica), field bindweed (Convolvulus arvensis), morningglory (Ipomoea coccinea), nightshade (eastern black nightshade, Solanum ptycanthum), kochia (Kochia scoparia), nutsedge, yellow (yellow nutsedge, Cyperus esculentus), cocklebur (common cocklebur, Xanthium strumarium), smartweed (ladysthumb smartweed, Polygonum Persicaria) and beggarticks (hairy beggarticks, Bidens pilosa), were planted into a silt loam soil and treated preemergence with test chemicals formulated in a non-phytotoxic solvent mixture which included a surfactant. Treated plants and controls were maintained in a greenhouse for 21 days, after which time all species were compared to controls and visually evaluated. Plant response ratings, summarized in Table E, are based on a scale of 0 to 100 where 0 is no effect and 100 is complete control. A dash (-) response means no test result.
smiles,measurement,setting,value
O=C1NCC(c2cccc(Br)c2)C1C(=O)Nc1ccccc1F (centres unmarked) [Compound 66],"Plant response rating, Foxtail, Giant","foxtail, giant; 16 g ai/ha",0
same,"Plant response rating, Foxtail, Giant","foxtail, giant; 31 g ai/ha",0
same,"Plant response rating, Foxtail, Giant","foxtail, giant; 62 g ai/ha",0
same,"Plant response rating, Foxtail, Giant","foxtail, giant; 125 g ai/ha",98
same,"Plant response rating, Surinam Grass",surinam grass; 16 g ai/ha,0
same,"Plant response rating, Surinam Grass",surinam grass; 31 g ai/ha,0
same,"Plant response rating, Surinam Grass",surinam grass; 62 g ai/ha,0
same,"Plant response rating, Surinam Grass",surinam grass; 125 g ai/ha,0
same,"Plant response rating, Surinam Grass",surinam grass; 250 g ai/ha,35
same,"Plant response rating, Waterhemp",waterhemp; 16 g ai/ha,0
same,"Plant response rating, Waterhemp",waterhemp; 31 g ai/ha,0
same,"Plant response rating, Waterhemp",waterhemp; 62 g ai/ha,0
same,"Plant response rating, Waterhemp",waterhemp; 125 g ai/ha,0
same,"Plant response rating, Waterhemp",waterhemp; 250 g ai/ha,0

# Source: patent publication US10294202B2, “Pyrrolidinones as herbicides” (FMC Corporation, priority 2013, dated 2019)
